The record followed here is US9675605B2, “Substituted naphthyridine and quinoline compounds as MAO inhibitors” (DART NEUROSCIENCE (CAYMAN) LTD., priority 2013, dated 2017).

A value given as a limit tells only on which side of the number the result lay.

Sequence of Human recombinant MAO-A (P21397 whole entry): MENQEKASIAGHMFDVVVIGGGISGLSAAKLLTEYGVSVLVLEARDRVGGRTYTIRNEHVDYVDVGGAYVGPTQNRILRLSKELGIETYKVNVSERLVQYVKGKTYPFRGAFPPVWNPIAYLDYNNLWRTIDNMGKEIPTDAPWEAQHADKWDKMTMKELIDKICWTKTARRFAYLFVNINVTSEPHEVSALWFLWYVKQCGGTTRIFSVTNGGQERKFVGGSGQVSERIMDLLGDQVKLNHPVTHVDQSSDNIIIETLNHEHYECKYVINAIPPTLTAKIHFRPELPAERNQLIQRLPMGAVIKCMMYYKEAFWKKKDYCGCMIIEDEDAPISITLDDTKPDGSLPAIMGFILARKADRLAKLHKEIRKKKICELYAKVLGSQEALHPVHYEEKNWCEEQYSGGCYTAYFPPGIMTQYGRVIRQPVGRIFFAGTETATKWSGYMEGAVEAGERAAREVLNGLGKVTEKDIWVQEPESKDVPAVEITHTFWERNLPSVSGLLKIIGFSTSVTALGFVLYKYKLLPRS
Sequence of Human recombinant MAO-B (P27338 whole entry): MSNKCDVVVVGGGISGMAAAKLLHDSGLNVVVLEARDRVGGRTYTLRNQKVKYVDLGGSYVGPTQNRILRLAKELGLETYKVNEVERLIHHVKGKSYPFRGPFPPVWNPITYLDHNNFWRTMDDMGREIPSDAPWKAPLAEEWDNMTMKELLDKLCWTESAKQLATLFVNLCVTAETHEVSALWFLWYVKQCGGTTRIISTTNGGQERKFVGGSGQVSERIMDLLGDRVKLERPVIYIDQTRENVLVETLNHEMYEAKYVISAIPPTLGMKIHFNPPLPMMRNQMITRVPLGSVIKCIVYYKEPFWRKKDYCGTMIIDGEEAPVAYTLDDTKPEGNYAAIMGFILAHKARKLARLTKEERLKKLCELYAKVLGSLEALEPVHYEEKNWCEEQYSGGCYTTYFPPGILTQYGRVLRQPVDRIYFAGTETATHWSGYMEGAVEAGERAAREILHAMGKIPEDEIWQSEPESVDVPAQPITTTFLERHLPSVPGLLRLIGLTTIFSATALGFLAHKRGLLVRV

One assay has as its target Human recombinant MAO-B (Homo sapiens (Human), UniProt P27338). Put plainly: MAO-B enzymatic assay (fluorometric, kynuramine). In kind it is biochemical. To be noted: human recombinant MAO-B expressed in insect cells, 50 μm kynuramine, pH 7.4, 37° C.; values given as ranges; read-out: MAO-B (pEC50) (converted). The procedure: (§1) The MAO enzymatic assay was performed according to the fluorometric method described by Matsumoto and colleagues (Matsumoto et al., Clin. Biochem. 1985, 18, 126-129) with the following modifications. Human recombinant MAO-A and MAO-B expressed in insect cells were used. For both assays, test compound and/or vehicle were preincubated with purified enzyme in phosphate buffer pH 7.4 for 15 minutes at 37° C. The reaction was initiated by addition of […] kynuramine. Following a 60 minute incubation period, the reaction was terminated by the addition of 6 N NaOH. The amount of 4-hydroxyquinoline that formed was determined by spectrofluorimetrically at 325 nm/465 nm.
(§2) Results were converted to percent inhibition, and the EC50 (M) for each reaction was determined using the XLfit program from IDBS (ID Business Solutions Ltd., 2 Occam Court, Surrey Research Park, Guildford, Surrey, GU2 7QB UK). The EC50 represents the concentration of a compound where 50% of its maximal effect is observed. The pEC50 is defined as the negative logarithm of the EC50; a higher pEC50 value therefore corresponds to higher potency in the assay.
Representative compounds of the invention were evaluated in the MAO-B enzymatic assay. Typically, the compounds of the invention show MAO-B inhibitory properties at a concentration of 0.1 to 10 μM, typically at 5-100%.
With `CCOC(=O)Cc1cnc2cc(OCc3cccc(Cl)c3)ccc2c1` [Example 51, Ethyl 2-(7-((3-chlorobenzyl)oxy)quinolin-3-yl)acetate], the EC50 was 100 to 1000 nM.

The target in a further assay is Human recombinant MAO-A (Homo sapiens (Human), UniProt P21397). Put plainly: MAO enzymatic assay, MAO-B selectivity (MAO-A/MAO-B). The note with it: selectivity for MAO-B over MAO-A; values given as ranges. It is filed as biochemical. The procedure:
as §1, §2
Regarding `CCOC(=O)c1cnc2cc(OCc3ccc(Cl)cc3)ccc2c1` [Example 1, Ethyl 7-[(4-chlorophenyl)methoxy]quinoline-3-carboxylate], the MAO-A/MAO-B was >10-100. Turning to `CCOC(=O)c1cnc2cc(OCc3ccc(F)cc3)ccc2c1` [Example 2, Ethyl 7-[(4-fluorophenyl)methoxy]quinoline-3-carboxylate], the MAO-A/MAO-B is on record as >100-200. Still for that read-out and setting: under `CCOC(=O)c1cnc2cc(OCc3cccc(Cl)c3)ccc2c1` [Example 3, Ethyl 7-[(3-chlorophenyl)methoxy]quinoline-3-carboxylate] stands >10-100; under `CCOC(=O)c1cnc2cc(OCc3cccc(F)c3)ccc2c1` [Example 4, Ethyl 7[(3-fluorophenyl)methoxy]quinoline-3-carboxylate], 1-10. For the compound `CCOC(=O)c1cnc2cc(OCc3cccc(C(F)(F)F)c3)ccc2c1` [Example 5, Ethyl 7-((3-(trifluoromethyl)benzyl)oxy)quinoline-3-carboxylate], the MAO-A/MAO-B is recorded as >100-200. On the same count and under the same terms, under `CCOC(=O)c1cnc2cc(OCc3ccc(C(F)(F)F)cc3)ccc2c1` [Example 6, Ethyl 7-((4-(trifluoromethyl)benzyl)oxy)quinoline-3-carboxylate] stands >10-100; under `CCOC(=O)c1cnc2cc(OCc3cccc(C)c3)ccc2c1` [Example 7, Ethyl 7-((3-methylbenzyl)oxy)quinoline-3-carboxylate], >100-200; under `CCOC(=O)c1cnc2cc(OCc3ccc(C)cc3)ccc2c1` [Example 8, Ethyl 7-((4-methylbenzyl)oxy)quinoline-3-carboxylate], >10-100. For the compound `CCOC(=O)c1cnc2cc(OCc3cccc(OC)c3)ccc2c1` [Example 9, Ethyl 7-((3-methoxybenzyl)oxy)quinoline-3-carboxylate], the MAO-A/MAO-B was >100-200. With `CCOC(=O)c1cnc2cc(OCc3ccc(OC)cc3)ccc2c1` [Example 10, Ethyl 7-((4-methoxybenzyl)oxy)quinoline-3-carboxylate], the MAO-A/MAO-B is given as >10-100. On the same count and under the same terms, the figure for `CCOC(=O)c1cnc2cc(OCc3ccc([N+](=O)[O-])cc3)ccc2c1` [Example 11, Ethyl 7-((4-nitrobenzyl)oxy)quinoline-3-carboxylate] is 1-10; for `CCOC(=O)c1cnc2cc(OCc3ccc(F)c(C(F)(F)F)c3)ccc2c1` [Example 12, Ethyl 7-((4-fluoro-3-(trifluoromethyl)benzyl)oxy)quinoline-3-carboxylate] it is above 200; for `CCOC(=O)c1cnc2cc(OCc3cc(F)cc(C(F)(F)F)c3)ccc2c1` [Example 13, Ethyl 7-((3-fluoro-5-(trifluoromethyl)benzyl)oxy)quinoline-3-carboxylate] it is >100-200.

In the case of `CCOC(=O)c1cnc2cc(OCc3ccc(F)c(F)c3)ccc2c1` [Example 14, Ethyl 7-((3,4-difluorobenzyl)oxy)quinoline-3-carboxylate], the MAO-A/MAO-B is on record as above 200. Consider `CCOC(=O)c1cnc2cc(OCc3cc(F)cc(F)c3)ccc2c1` [Example 15, Ethyl 7-((3,5-difluorobenzyl)oxy)quinoline-3-carboxylate], for which the MAO-A/MAO-B is above 200. Regarding `CCOC(=O)c1cnc2cc(OCc3cc(F)c(F)c(F)c3)ccc2c1` [Example 16, Ethyl 7-((3,4,5-trifluorobenzyl)oxy)quinoline-3-carboxylate], the MAO-A/MAO-B is above 200. On the same count and under the same terms, under `CCOC(=O)c1cnc2cc(OCc3ccc(F)c(Cl)c3)ccc2c1` [Example 17, Ethyl 7-((3-chloro-4-fluorobenzyl)oxy)quinoline-3-carboxylate] stands >100-200; under `CCOC(=O)c1cnc2cc(OCc3cccc([N+](=O)[O-])c3)ccc2c1` [Example 18, Ethyl 7-((3-nitrobenzyl)oxy)quinoline-3-carboxylate], >10-100; under `CCOC(=O)c1cnc2cc(OCCc3cccc(F)c3)ccc2c1` [Example 24, Ethyl 7-(3-fluorophenethoxy)quinoline-3-carboxylate], >10-100. The same measure, in the same setting: under `CCOC(=O)c1cnc2cc(OCCc3cccc(Cl)c3)ccc2c1` [Example 25, Ethyl 7-(3-chlorophenethoxy)quinoline-3-carboxylate] stands >10-100; under `CC(C)(O)c1cnc2cc(OCc3ccc(F)cc3)ccc2c1` [Example 27, 2-(7-((4-Fluorobenzyl)oxy)quinolin-3-yl)propan-2-ol], above 200.
